Assay results published in publication PMC10058310 (Science Advances, 2023).

How the values were obtained:
SARS2 M^pro P168G = conditions: cited from earlier work
[1] = test system: recombinant SARS2 encoding A173V M^pro; assay type: cell-based, SARS-CoV-2; conditions: read-out: IC50 (95% CI)
[2] = test system: recombinant SARS2 encoding ∆P168/A173V M^pro; assay type: cell-based, SARS-CoV-2; conditions: read-out: IC50 (95% CI)
[3] = test system: recombinant SARS2 encoding ∆P168 M^pro; test: microbe, parasite or virus in culture; assay type: cell-based; conditions: […], A549-hACE2 cells
SARS2 M^pro P168S [4] = molecular target: T1, SARS2 M^pro P168S (Severe acute respiratory syndrome coronavirus 2, UniProt P0DTD1, P3431S); assay type: cell-based, SARS-CoV-2
SARS2 M^pro M49I = SARS2 M^pro M49I (Severe acute respiratory syndrome coronavirus 2, UniProt P0DTD1, M3312I); conditions: cited from earlier work
SARS2 M^pro P168S [5] = molecular target: T1, SARS2 M^pro P168S; conditions: cited from earlier work

Structure (SMILES) | effect of amino acid change on inhibitor susceptibility (SARS2 M^pro P168G) | IC50 [1] [µM] | IC50 [2] [µM] | also measured
CC(C)C[C@H](NC(=O)OCc1ccccc1)C(=O)N[C@@H](C[C@@H]1CCNC1=O)C(O)S(=O)(=O)[O-].[Na+] (stereo partly drawn) [GC376] | no effect |  |  | 
Cn1cnc(Cn2c(=O)[nH]/c(=N\c3cc4cn(C)nc4cc3Cl)n(Cc3cc(F)c(F)cc3F)c2=O)n1 [Ensitrelvir, ensitrelvir] |  | 0.0078 | 0.0033 | 
CC(C)(C)[C@H](NC(=O)C(F)(F)F)C(=O)N1C[C@H]2[C@@H]([C@H]1C(=O)N[C@H](C#N)C[C@@H]1CCNC1=O)C2(C)C [Nirmatrelvir, nirmatrelvir] |  | 0.036 |  | 
CCC(CC)COC(=O)[C@H](C)N[P@](=O)(OC[C@H]1O[C@@](C#N)(c2ccc3c(N)ncnn23)[C@H](O)[C@@H]1O)Oc1ccccc1 [Remdesivir, remdesivir] |  | 1.3 | 1.5 | Fold change in antiviral EC50 [3]: 0.9 fold; Fold change in antiviral EC50 ([3]; listed as remdesivir): none of the mutants alter susceptibility
CC(C)(C)NC(=O)N[C@H](C(=O)N1C[C@H]2[C@@H]([C@H]1C(=O)NC(CC1CCC1)C(=O)C(N)=O)C2(C)C)C(C)(C)C (stereo partly drawn) [boceprevir] | improve susceptibility |  |  | fold increase in susceptibility (SARS2 M^pro P168S [4]): 5.5 fold; effect of substitution on inhibitor susceptibility (SARS2 M^pro M49I): little effect; effect of amino acid change on inhibitor susceptibility (SARS2 M^pro P168S [5]): improve susceptibility
